Source: ChEMBL document CHEMBL1201862, “PubChem BioAssay data set” (2004)
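Exposure lasted 48 hours, with cells grown in 96-well plates and compounds tested at five concentrations. Here, GI50 denotes the concentration required for 50% inhibition of growth.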 The source made the active and inactive calls. No stated cut-off is given here; in the data, active = GI50 up to about 1.1 µM and inactive = higher.

How the values were obtained:
Experiment in all cases: DTP human tumour cell line panel, 48 h
U-251 = system: U-251
HCT-15 = system: HCT-15
LOX IMVI = system: LOX IMVI
CCRF-CEM = system: CCRF-CEM
SK-MEL-5 = system: SK-MEL-5
KM12 = system: KM12
HCC 2998 = system: HCC 2998
SN12C = system: SN12C
XF498 = system: XF498
K562 = system: K562
HT-29 = system: HT-29
M19-MEL = system: M19-MEL
UACC-62 = system: UACC-62
TK-10 = system: TK-10
IGROV-1 = system: IGROV-1
A549 = system: A549
UO-31 = system: UO-31
EKVX = system: EKVX
HL-60 = system: HL-60
HOP-18 = system: HOP-18
RXF 393 = system: RXF 393
OVCAR-4 = system: OVCAR-4
HOP-62 = system: HOP-62
SF-295 = system: SF-295
NCI-H226 = system: NCI-H226
SK-OV-3 = system: SK-OV-3
KM-20L2 = system: KM-20L2
LXFL 529 = system: LXFL 529
MOLT-4 = system: MOLT-4
OVCAR-5 = system: OVCAR-5
SNB-19 = system: SNB-19
SNB-78 = system: SNB-78
CAKI-1 = system: CAKI-1
SW-620 = system: SW-620
UACC-257 = system: UACC-257
Malme-3M = system: Malme-3M
HOP-92 = system: HOP-92
ACHN = system: ACHN
SK-MEL-28 = system: SK-MEL-28
OVCAR-8 = system: OVCAR-8
786-0 = system: 786-0
M14 = system: M14
HCT-116 = system: HCT-116
OVCAR-3 = system: OVCAR-3
DLD-1 = system: DLD-1
COLO 205 = system: COLO 205
DMS-273 = system: DMS-273
SNB-75 = system: SNB-75
SK-MEL-2 = system: SK-MEL-2
RPMI-8226 = system: RPMI-8226
NCI-H460 = system: NCI-H460
MDA-MB-231 = system: MDA-MB-231
NCI/ADR-RES = system: NCI/ADR-RES
DU-145 = system: DU-145
A498 = system: A498
MDA-MB-435 = system: MDA-MB-435
NCI-H23 = system: NCI-H23
Hs-578T = system: Hs-578T
DMS-114 = system: DMS-114
SF-539 = system: SF-539
SF-268 = system: SF-268
SR = system: SR
MCF7 = system: MCF7
PC-3 = system: PC-3
NCI-H522 = system: NCI-H522
BT-549 = system: BT-549
T47D = system: T47D
MDA-N = system: MDA-N

Measured: GI50

CC(NC1CCCC[C@@H]1O)c1ccccc1 (stereo partly drawn)
inactive: U-251 > 100 µM | LOX IMVI > 100 µM | CCRF-CEM > 100 µM | SK-MEL-5 > 100 µM | KM12 > 100 µM | HCC 2998 > 100 µM | SN12C > 100 µM | XF498 > 100 µM | K562 > 100 µM | HT-29 > 100 µM | M19-MEL > 100 µM | UACC-62 > 100 µM | TK-10 > 100 µM | IGROV-1 > 100 µM | A549 > 100 µM | UO-31 > 100 µM | EKVX > 100 µM | HL-60 > 100 µM | HOP-18 > 100 µM | RXF 393 > 100 µM | OVCAR-4 > 100 µM | HOP-62 > 100 µM | SF-295 > 100 µM | NCI-H226 > 100 µM | SK-OV-3 > 100 µM | KM-20L2 > 100 µM | LXFL 529 > 100 µM | MOLT-4 > 100 µM | OVCAR-5 > 100 µM | SNB-19 > 100 µM | SNB-78 > 100 µM | CAKI-1 55.3 µM | SW-620 > 100 µM | UACC-257 > 100 µM | Malme-3M > 100 µM | HOP-92 > 100 µM | ACHN > 100 µM | SK-MEL-28 > 100 µM | OVCAR-8 > 100 µM | 786-0 > 100 µM | M14 > 100 µM | HCT-116 > 100 µM | OVCAR-3 > 100 µM | DLD-1 > 100 µM | COLO 205 > 100 µM | DMS-273 > 100 µM | SNB-75 > 100 µM | SK-MEL-2 > 100 µM | RPMI-8226 > 100 µM | NCI-H460 > 100 µM
> 100 µM: HCT-15

Cc1cc2nc3ccc(N(C)C)cc3[s+]c2cc1N [TOLONIUM CHLORIDE]
active: SK-MEL-5 0.641 µM | M19-MEL 0.184 µM | HL-60 0.383 µM | MDA-MB-435 0.977 µM | DMS-114 0.867 µM | LXFL 529 0.769 µM | OVCAR-3 0.995 µM | MDA-N 1.09 µM
2.99 µM: HCT-15
inactive: U-251 3.17 µM | LOX IMVI 1.96 µM | CCRF-CEM 1.16 µM | KM12 3.84 µM | MDA-MB-231 2.41 µM | HCC 2998 3.7 µM | SN12C 3.1 µM | K562 2.22 µM | HT-29 7.93 µM | UACC-62 1.89 µM | TK-10 19.2 µM | NCI/ADR-RES 2.26 µM | IGROV-1 6.22 µM | DU-145 15.7 µM | A498 21.3 µM | A549 3.22 µM | UO-31 11 µM | EKVX 4.48 µM | HOP-18 10.3 µM | RXF 393 7.52 µM | OVCAR-4 3.35 µM | HOP-62 8.97 µM | NCI-H23 2.21 µM | Hs-578T 5.12 µM | SF-295 3.62 µM | NCI-H226 8.22 µM | SK-OV-3 9.71 µM | KM-20L2 14.5 µM | MOLT-4 2.69 µM | SF-539 2.63 µM | OVCAR-5 9.73 µM | SF-268 5.38 µM | SNB-19 2.69 µM | SR 3.67 µM | MCF7 2.3 µM | SNB-78 12.6 µM | CAKI-1 23.5 µM | SW-620 2.86 µM | UACC-257 1.37 µM | PC-3 1.58 µM | NCI-H522 2.62 µM | Malme-3M 1.93 µM | HOP-92 13.4 µM | ACHN 8.71 µM | SK-MEL-28 13.6 µM | OVCAR-8 2.16 µM | 786-0 5.22 µM | M14 2.24 µM | BT-549 11.7 µM | HCT-116 1.75 µM | DLD-1 6.38 µM | COLO 205 2.97 µM | T47D 5.2 µM | DMS-273 2.67 µM | SNB-75 11 µM | SK-MEL-2 3.5 µM | RPMI-8226 1.48 µM | NCI-H460 2.82 µM
